# Entries after “also recorded” stand apart in the source; their conditions may differ.
# Assays:
# Assay type in all cases: in vivo, mouse
# [1] = test system: splenocytes (CD4+Foxp3+ Tregs, CD4+ IFN-γ+ T cells); experiment: Flow cytometry of splenocytes; settings: p300i 8.9 mg/kg/d i.p. 1 week vs vehicle (DMSO), aged mice (18 months), a day after cessation
# Procedure: (§1) Mice were transcardially perfused with PBS, and tissues were treated as previously described (Baruch et al, 2013). Brains were dissected and the different brain regions were removed under a dissecting microscope (Stemi DV4; Zeiss) in PBS, and tissues were dissociated using the gentleMACS™ dissociator (Miltenyi Biotec). Choroid plexus tissues were isolated from the lateral, third and fourth ventricles of the brain, incubated at 37° C. for 45 min in PBS (with Ca^2+/Mg^2+) containing 400 U/ml collagenase type IV (Worthington Biochemical Corporation), and then manually homogenized by pipetting. Spleens were mashed with the plunger of a syringe and treated with ACK (ammonium chloride potassium) lysing buffer to remove erythrocytes. In all cases, samples were stained according to the manufacturers' protocols. All samples were filtered through a 70 μm nylon mesh, and blocked with anti-Fc CD16/32 (1:100; BD Biosciences). For intracellular staining of IFN-γ, the cells were incubated with […] (10 ng/ml; Sigma-Aldrich) and ionomycin (250 ng/ml; Sigma-Aldrich) for 6 h, and Brefeldin-A (10 μg/ml; Sigma-Aldrich) was added for the last 4 h. Intracellular labeling of cytokines was done with BD Cytofix/Cytoperm™ Plus fixation/permeabilization kit (cat. no. 555028). For Treg staining, an eBioscience FoxP3 staining buffer set (cat. no. 00-5523-00) was used. The following fluorochrome-labeled monoclonal antibodies were purchased from BD Pharmingen, BioLegend, R&D Systems, or eBiosciences, and used according to the manufacturers' protocols: PE or Alexa Fluor 450-conjugated anti-CD4; PE-conjugated anti-CD25; PerCP-Cy5.5-conjugated anti-CD45; FITC-conjugated anti-TCRβ; APC-conjugated anti-IFN-γ; APC-conjugated anti-FoxP3; Brilliant-violet-conjugated anti-CD45. Cells were analyzed on an LSRII cytometer (BD Biosciences) using FlowJo software. In each experiment, relevant negative control groups, positive controls, and single stained samples for each tissue were used to identify the populations of interest and to exclude other populations.
# [2] = test system: IFN-γ-expressing immune cells in the CP; experiment: Flow cytometry of CP IFN-γ-expressing immune cells; settings: p300i 1 week vs vehicle (DMSO), aged mice (18 months), a day after cessation
# Procedure: as §1, with “For Treg staining, an eBioscience FoxP3 staining buffer set (cat. no. 00-5523-00) was used. The following fluorochrome-labeled monoclonal antibodies were purchased from BD Pharmingen, BioLegend, R&D Systems, or eBiosciences, and used according to the manufacturers' protocols: PE or Alexa Fluor 450-conjugated anti-CD4; PE-conjugated anti-CD25; PerCP-Cy5.5-conjugated anti-CD45; FITC-conjugated anti-TCRβ; APC-conjugated anti-IFN-γ; APC-conjugated anti-FoxP3; Brilliant-violet-conjugated anti-CD45.” left out, “In each experiment, relevant negative control groups, positive controls, and single stained samples for each tissue were used to identify the populations of interest and to exclude other populations.” left out
# [3] = test system: soluble Aβ1-40 and Aβ1-42; experiment: Soluble Aβ (sAβ) protein quantification by ELISA
# Procedure: Tissue homogenization and sAβ protein extraction was performed as previously described (Schmidt et al, 2005). Briefly, cerebral brain parenchyma was dissected and snap-frozen and kept at −80° C. until homogenization. Proteins were sequentially extracted from samples to obtain separate fractions containing proteins of differing solubility. Samples were homogenized in 10 volumes of ice-cold tissue homogenization buffer, containing 250 mM of sucrose, 20 mM of Tris base, 1 mM of ethylenediaminetetraacetic acid (EDTA), and 1 mM of ethylene glycol tetraacetic acid (pH 7.4), using a ground glass pestle in a Dounce homogenizer. After six strokes, the homogenate was mixed 1:1 with 0.4% diethylamine (DEA) in a 100-mM NaCl solution before an additional six strokes, and then centrifuged at 135,000 g at 4° C. for 45 min. The supernatant (DEA-soluble fraction containing extracellular and cytosolic proteins) was collected and neutralized with 10% of 0.5M of Tris-HCl (pH 6.8). Aβ1-40 and Aβ1-42 were individually measured by enzyme-linked immunosorbent assay (ELISA) from the soluble fraction using commercially available kits (Biolegend; #SIG-38954 and #SIG-38956, respectively) according to the manufacturer instructions.
# Aβ plaques = experiment: Aβ plaque quantitation (immunohistochemistry)
# Procedure: Tissue processing and immunohistochemistry were performed on paraffin embedded sectioned mouse (6 μm thick) and human (10 μm thick) brains. For human ICAM-1 staining, primary mouse anti-ICAM (1:20 Abcam; ab2213) antibody was used. Slides were incubated for 10 min with 3% H2O2, and a secondary biotin-conjugated anti-mouse antibody was used, followed by biotin/avidin amplification with Vectastain ABC kit (Vector Laboratories). Subsequently, 3,3′-diaminobenzidine (DAB substrate) (Zytomed kit) was applied; slides were dehydrated and mounted with xylene-based mounting solution. For tissue stainings, mice were transcardially perfused with PBS prior to tissue excision and fixation. CP tissues were isolated under a dissecting microscope (Stemi DV4; Zeiss) from the lateral, third, and fourth ventricles of the brain. For whole mount CP staining, tissues were fixated with 2.5% paraformaldehyde (PFA) for 1 hour at 4° C., and subsequently transferred to PBS containing 0.05% sodium azide. Prior to staining, the dissected tissues were washed with PBS and blocked (20% horse serum, 0.3% Triton X-100, and PBS) for 1 h at room temperature. Whole mount staining with primary antibodies (in PBS containing 2% horse serum and 0.3% Triton X-100), or secondary antibodies, was performed for 1 h at room temperature. Each step was followed by three washes in PBS. The tissues were applied to slides, mounted with Immu-mount (9990402, from Thermo Scientific), and sealed with cover-slips. For staining of sectioned brains, two different tissue preparation protocols (paraffin embedded or microtomed free-floating sections) were applied, as previously described (Baruch et al, 2013; Kunis et al, 2013). The following primary antibodies were used: mouse anti-Aβ (1:300, Covance, #SIG-39320); rabbit anti-GFP (1:100, MBL, #598); rat anti-CD68 (1:300, eBioscience, #14-0681); rat anti-ICAM-1 (1:200, Abcam, #AB2213); goat anti-GFP (1:100, Abcam, #ab6658); rabbit anti-IBA-1 (1:300, Wako, #019-19741); goat anti-IL-10 (1:20, R&D systems, #AF519); rat anti-Foxp3 (1:20, eBioscience, #13-5773-80); rabbit anti-CD3 (1:500, Dako, #IS503); mouse anti-ZO-1, mouse anti-E-Cahedrin, and rabbit anti-Claudin-1 (all 1:100, Invitrogen, #33-9100, #33-4000, #51-9000); rabbit anti-GFAP (1:200, Dako, #Z0334). Secondary antibodies included: Cy2/Cy3/Cy5-conjugated donkey anti-mouse/goat/rabbit/rat antibodies (1:200; all from Jackson Immunoresearch). The slides were exposed to Hoechst nuclear staining (1:4000; Invitrogen Probes) for 1 min. Two negative controls were routinely used in immunostaining procedures, staining with isotype control antibody followed by secondary antibody, or staining with secondary antibody alone. For Foxp3 intracellular staining, antigen retrieval from paraffin-embedded slides was performed using Retreivagen Kit (#550524, #550527; BD Pharmingen™). Microscopic analysis, was performed using a fluorescence microscope (E800; Nikon) or laser-scanning confocal microscope (Carl Zeiss, Inc.). The fluorescence microscope was equipped with a digital camera (DXM 1200F; Nikon), and with either a 20× NA 0.50 or 40× NA 0.75 objective lens (Plan Fluor; Nikon). The confocal microscope was equipped with LSM 510 laser scanning capacity (three lasers: Ar 488, HeNe 543, and HeNe 633). Recordings were made on postfixed tissues using acquisition software (NIS-Elements, F3 [Nikon] or LSM [Carl Zeiss, Inc.]). For quantification of staining intensity, total cell and background staining was measured using ImageJ software (NIH), and intensity of specific staining was calculated, as previously described (Burgess et al, 2010). Images were cropped, merged, and optimized using Photoshop CS6 13.0 (Adobe), and were arranged using Illustrator CS5 15.1 (Adobe).
# From each brain, 6 μm coronal slices were collected, and eight sections per mouse, from four different pre-determined depths throughout the region of interest (dentate gyrus or cerebral cortex) were immunostained. […]
# [4] = two courses of p300i, interval of 1 month
structure (smiles),measurement,setting,value
"CC1=NN(c2ccc(C(=O)O)cc2)C(=O)/C1=C\c1ccc(-c2cc(C)c(C)cc2[N+](=O)[O-])o1 [p300i, 4-(4-((5-(4,5-dimethyl-2-nitrophenyl)furan-2-yl)methylene)-3-methyl-5-oxo-4,5-dihydro-1H-pyrazol-1-yl)benzoic acid]",IFN-γ-expressing cells (CD4+ T cells) in the spleen,[1],elevated levels; also recorded: elevation
same,IFN-γ-expressing immune cells in the CP,[2],elevated levels; also recorded: elevation
same,cerebral sAβ levels,[3]; one course of p300i,effective in reducing cerebral sAβ
same,cerebral sAβ levels,[3]; [4],effective in reducing cerebral sAβ
same,"effect on sAβ1-42, repeated courses vs one course",[3]; [4],stronger
same,cerebral Aβ plaque load,"Aβ plaques; p300i 1 week, examined 3 weeks later, 10-month old AD-Tg mice",significant reduction in cerebral Aβ plaque load
same,cerebral plaque load (cortex 5th layer),"Aβ plaques; single course of p300i, examined 2 months later, AD-Tg mice age 7 months",reduction of cerebral plaque load was evident
same,"reduction of cerebral plaque load, two courses vs single course",Aβ plaques; two courses of p300i with a 1-month interval,stronger

# — patent US10961309B2, “Reducing systemic regulatory T cell levels or activity for treatment of disease and injury of the CNS” (Yeda Research and Development Co. Ltd, priority 2014, dated 2021)
